Measurements from US12544391B2, “CD73 inhibitors” (ORIC Pharmaceuticals, Inc., priority 2019, dated 2026).
pEC50, pIC50: −log10 of the molar value.

Columns and labels:
[1] = target: T1, mouse CD73 (EMT6 breast cancer cells) (Mus musculus, UniProt Q61503); test: Cellular CD73 assay in mouse EMT6 breast cancer cells, adenosine by LC-MS/MS; assay type: cell-based; settings: PBS/3% BSA, adenosine in supernatant
T1 construct: mouse EMT6 breast cancer cells which express endogenous CD73 on their surface; host or cells: EMT6 (mouse breast cancer)
T1 sequence (Q61503 29-551): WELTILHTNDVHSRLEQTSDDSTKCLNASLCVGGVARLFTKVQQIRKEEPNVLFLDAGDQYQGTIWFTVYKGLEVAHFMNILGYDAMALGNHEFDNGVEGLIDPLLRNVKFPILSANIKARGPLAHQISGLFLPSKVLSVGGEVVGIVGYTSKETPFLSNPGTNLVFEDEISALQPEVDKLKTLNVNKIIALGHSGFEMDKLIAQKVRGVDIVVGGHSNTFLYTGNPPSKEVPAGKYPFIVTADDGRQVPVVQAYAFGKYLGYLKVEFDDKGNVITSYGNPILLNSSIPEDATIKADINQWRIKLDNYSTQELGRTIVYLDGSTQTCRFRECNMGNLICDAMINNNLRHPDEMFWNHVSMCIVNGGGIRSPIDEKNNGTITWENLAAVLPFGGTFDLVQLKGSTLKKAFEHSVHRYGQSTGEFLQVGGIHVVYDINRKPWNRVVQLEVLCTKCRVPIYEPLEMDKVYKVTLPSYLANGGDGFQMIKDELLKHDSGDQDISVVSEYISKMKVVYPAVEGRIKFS
Method: (§1) Activity of cell bound CD73 was assessed by direct measurement of adenosine produced from AMP using liquid chromatography with tandem mass-spectrometry (LC-MS/MS). Human NSCLC H1568 cells expressing endogenous CD73 on their surface were obtained from ATCC(CRL-5876) and cultured in growth medium (RPMI, 10% FBS, 1 mM L-glutamine, 100 mL penicillin-streptomycin). Cells were seeded onto 96-well tissue culture plates at 10,000 cells/well and allowed to adhere for 20-24 h. 500× serial compound dilutions were prepared in DMSO in a 12-point 3-fold titration, and then diluted 1:50 into RPMI supplemented with 10% human plasma (BioIVT, cat #HMPLEDTA5) generating 10× compound dilutions. Growth medium was removed from the cells and replaced with […] of RPMI/10% human plasma. 10 mL of 10× compound dilutions were then added to the cells and incubated for 15 min at 37° C., 5% CO2. Then 10 mL of 100 mM AMP/50 mM EHNA (Sigma-Aldrich, A1752 and E114) were added to a final concentration of 10 mM AMP/5 mM EHNA. After 1 h incubation at 37° C., 5% CO2, 80 mL of supernatant was removed from the cells and transferred to a deep well polypropylene 96-well plate (Costar #3961) prefilled with 240 mL of organic solvent composed of methanol:acetonitrile (1:1, v/v) with 0.1% formic acid, plus 150 ng/mL of Adenosine-15N and AMP-13C as internal standards. Amount of unlabeled adenosine and AMP in each well was measured on AB Sciex API 4000 QTrap with Shimadzu LC-30AD UPLC system. Limits of adenosine and AMP detection were 10-10,000 nM and 20-10,000 nM, respectively. The IC50 values were determined based on amount of adenosine in the supernatant using four parameter non-linear regression curve fit. DMSO treated cells produced 3000-4000 nM adenosine under these conditions with negligible variability on the same day assays. Small amount of adenosine generated from AMP in the absence of cells (less than 100 nM) was used as 100% inhibition control.
To determine activity of compounds on mouse CD73 mouse EMT6 breast cancer cells which express endogenous CD73 on their surface (ATCC, CRL-2755) were used. […]

[2] = target: T2, cell bound CD73 on Human NSCLC H1568 cells (Homo sapiens, UniProt P21589); test: Cellular CD73 assay in H1568 cells, adenosine produced from AMP by LC-MS/MS; assay type: cell-based; settings: RPMI/10% human plasma, 1 h with AMP/EHNA, adenosine in supernatant
T2 construct: Human NSCLC H1568 cells expressing endogenous CD73 on their surface; host or cells: H1568 (human NSCLC)
T2 sequence (P21589 27-549): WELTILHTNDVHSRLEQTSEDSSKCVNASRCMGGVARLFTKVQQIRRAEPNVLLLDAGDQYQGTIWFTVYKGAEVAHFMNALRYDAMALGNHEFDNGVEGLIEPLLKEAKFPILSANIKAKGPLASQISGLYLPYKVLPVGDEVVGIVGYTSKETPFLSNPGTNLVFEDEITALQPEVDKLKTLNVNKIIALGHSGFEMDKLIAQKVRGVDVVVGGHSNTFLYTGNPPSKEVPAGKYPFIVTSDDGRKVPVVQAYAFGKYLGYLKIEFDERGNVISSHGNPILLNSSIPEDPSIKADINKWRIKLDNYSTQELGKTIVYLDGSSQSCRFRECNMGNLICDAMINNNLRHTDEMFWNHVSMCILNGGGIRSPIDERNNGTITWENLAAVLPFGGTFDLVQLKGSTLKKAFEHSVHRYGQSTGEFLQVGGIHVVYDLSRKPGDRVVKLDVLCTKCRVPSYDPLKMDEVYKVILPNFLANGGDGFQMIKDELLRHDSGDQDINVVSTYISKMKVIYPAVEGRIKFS
Method: as §1, with “control. […]” for “control.”

CD73 = target: T3, CD73 (Homo sapiens, UniProt P21589); test: CD73 biochemical assay, Malachite Green detection of AMP hydrolysis; settings: CD73 320 pM, AMP 15 μM, Malachite Green readout
T3 sequence (P21589 27-549): T2 sequence (P21589 27-549)
Summary of the method: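 Human CD73 (0.3208 nM, i.e. 320 pM) preincubated 15 min RT with compounds (10-point ½-log titration from 100 μM, duplicates) in Tris pH 7.4, 5 mM MgCl2, Brij-35, BSA; 15 μM AMP added, 10 min RT. Phosphate read by Malachite Green absorbance; IC50 determined.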

Row | pEC50 [1] | pEC50 [2] | pIC50 (CD73) | SMILES
1 | 7.00 to 9.00 | 9.00 to 9.30 | ≥ 9.30 | O=P(O)(O)[C@@](CO)(COCc1nn[nH]n1)OC[C@H]1O[C@@H](c2ccc3c(NC4CCCC4)nc(Cl)nn23)[C@H](O)[C@@H]1O [Example 15, ((S)-1-((2H-Tetrazol-5-yl)methoxy)-2-(((2R,3S,4R,5S)-5-(2-chloro-4-(cyclopentylamino)pyrrolo[2,1-f][1,2,4]triazin-7-yl)-3,4-dihydroxytetrahydrofuran-2-yl)methoxy)-3-hydroxypropan-2-yl)phosphonic acid]
2 | ≥ 9.30 | ≥ 9.30 | ≥ 9.30 | COC[C@](COCc1nn[nH]n1)(OC[C@H]1O[C@@H](c2ccc3c(NC4CCCC4)nc(Cl)nn23)[C@H](O)[C@@H]1O)P(=O)(O)O (single isomer, unassigned) [Example 9]
3 | 9.00 to 9.30 | ≥ 9.30 | ≥ 9.30 | O=P(O)(O)[C@@](CO)(COCc1nn[nH]n1)OC[C@H]1O[C@@H](c2ccc3c(NC4CCC4)nc(Cl)nn23)[C@H](O)[C@@H]1O [Example 51, ((S)-1-((2H-tetrazol-5-yl)methoxy)-2-(((2R,3S,4R,5S)-5-(2-chloro-4-(cyclobutylamino)pyrrolo[2,1-f][1,2,4]triazin-7-yl)-3,4-dihydroxytetrahydrofuran-2-yl)methoxy)-3-hydroxypropan-2-yl)phosphonic acid]
